Results reported in the supplement of paper PMC10307832.

The cell lines below were run with C1CCC(CC1)N(CCNCCC2=C3C(=C(C=C2)O)NC(=O)CO3)C(=O)CCNCCC4=CC(=C(C=C4)Cl)Cl [AZ505] (assay: relative viability (nuclei count vs DMSO), 5 days (fraction); higher = more cells survive). Settings: 0.08 µM.
Method in brief: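 A plate was accepted only when its control CV was below 25% and the cells had doubled at least once. Viability is defined from nuclear counts as treated wells divided by vehicle wells, with the median taken across plates. That median covers lung cancer cell lines grown in 1536-well plates, dosed by pinning at five √10-spaced library-drug concentrations, and counted in MetaXpress from 4× Hoechst images after 5 days.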
Cell Line Calu-6 has a relative viability of 0.94. Work on HCC-366 yielded a relative viability of 0.982. Cell Line NCI-H1666 has a relative viability of 0.899. Cell Line NCI-H596 has a relative viability of 0.888. Cell Line LK-2 has a relative viability of 0.974. NCI-H2087 showed a relative viability of 0.883. In the case of SK-MES-1, the relative viability was 0.92. H3255 gave a relative viability of 0.901. Work on COR-L23 yielded a relative viability of 0.947. With COR-L 105 the relative viability was 0.89. Cell Line IA-LM has a relative viability of 0.931. Work on LOU-NH91 yielded a relative viability of 0.9. Cell Line NCI-H2170 has a relative viability of 0.953. NCI-H2405 was tested, and the relative viability was 0.769. Cell Line HOP-62 has a relative viability of 0.892. HCC-44 gave a relative viability of 0.951. Cell Line A549 has a relative viability of 0.864. For LU99A, the relative viability was 0.782. In the case of BEN, the relative viability was 0.873. With HARA the relative viability was 0.792. Work on HCC-78 yielded a relative viability of 0.794. For NCI-H322M, the relative viability was 0.906. In the case of LCLC-97TM1, the relative viability was 0.893. NCI-H2009 gave a relative viability of 0.987. Work on A-427 yielded a relative viability of 0.932. With NCI-H661 the relative viability was 0.951. NCI-H1734 was tested, and the relative viability was 0.905. In the case of NCI-H460, the relative viability was 0.991. In the case of NCI-H2347, the relative viability was 0.643. For SW 1573, the relative viability was 0.9.

Same assay, conditions: 0.253 µM
With NCI-H2085 the relative viability was 0.953. Calu-6 gave a relative viability of 1.01. Cell Line HCC-366 has a relative viability of 0.956. In the case of NCI-H1666, the relative viability was 0.978. Cell Line NCI-H596 has a relative viability of 0.784. For LK-2, the relative viability was 1.17. With NCI-H2087 the relative viability was 0.987. In the case of SK-MES-1, the relative viability was 0.953. H3255 was tested, and the relative viability was 1. For COR-L23, the relative viability was 0.97. Work on COR-L 105 yielded a relative viability of 0.918. With IA-LM the relative viability was 0.914. Cell Line LOU-NH91 has a relative viability of 0.937. Cell Line NCI-H2170 has a relative viability of 1.01. In the case of NCI-H2405, the relative viability was 0.707. With HOP-62 the relative viability was 1.09. Work on HCC-44 yielded a relative viability of 0.945. In the case of A549, the relative viability was 0.985. LU99A was tested, and the relative viability was 1.02. Cell Line BEN has a relative viability of 0.97. HARA was tested, and the relative viability was 0.758. Work on HCC-78 yielded a relative viability of 0.775. NCI-H322M showed a relative viability of 0.824. LCLC-97TM1 showed a relative viability of 0.838. NCI-H2009 showed a relative viability of 0.986. For A-427, the relative viability was 0.958. Cell Line NCI-H661 has a relative viability of 1.01. NCI-H1734 showed a relative viability of 0.914. With NCI-H460 the relative viability was 0.99. With NCI-H2347 the relative viability was 0.759. SW 1573 gave a relative viability of 0.964.

Same assay, conditions: 0.8 µM
NCI-H2085 showed a relative viability of 0.894. Calu-6 gave a relative viability of 0.96. For HCC-366, the relative viability was 0.99. With NCI-H1666 the relative viability was 0.974. For NCI-H596, the relative viability was 0.972. In the case of LK-2, the relative viability was 0.941. Cell Line NCI-H2087 has a relative viability of 0.978. For SK-MES-1, the relative viability was 0.909. H3255 gave a relative viability of 1.01. For COR-L23, the relative viability was 0.893. COR-L 105 was tested, and the relative viability was 0.887. In the case of IA-LM, the relative viability was 0.898. With LOU-NH91 the relative viability was 0.967. Work on NCI-H2170 yielded a relative viability of 0.932. NCI-H2405 was tested, and the relative viability was 0.784. For HOP-62, the relative viability was 1.14. In the case of HCC-44, the relative viability was 0.934. In the case of A549, the relative viability was 0.93. In the case of LU99A, the relative viability was 0.979. Work on BEN yielded a relative viability of 0.905. HARA showed a relative viability of 0.915. HCC-78 gave a relative viability of 0.861. NCI-H322M gave a relative viability of 0.954. LCLC-97TM1 was tested, and the relative viability was 0.897. With NCI-H2009 the relative viability was 0.998. A-427 gave a relative viability of 0.886. For NCI-H661, the relative viability was 0.963. Work on NCI-H1734 yielded a relative viability of 0.952. For NCI-H460, the relative viability was 0.966. For NCI-H2347, the relative viability was 0.738. SW 1573 gave a relative viability of 0.899.

Same assay, conditions: 2.53 µM
With NCI-H2085 the relative viability was 0.971. In the case of Calu-6, the relative viability was 0.993. For HCC-366, the relative viability was 0.897. Cell Line NCI-H1666 has a relative viability of 0.973. NCI-H596 gave a relative viability of 0.955. Cell Line LK-2 has a relative viability of 1.09. Work on NCI-H2087 yielded a relative viability of 0.996. SK-MES-1 was tested, and the relative viability was 0.943. In the case of H3255, the relative viability was 1.06. COR-L23 was tested, and the relative viability was 0.933. In the case of COR-L 105, the relative viability was 0.851. IA-LM was tested, and the relative viability was 0.953. LOU-NH91 gave a relative viability of 0.983. Work on NCI-H2170 yielded a relative viability of 0.998. For NCI-H2405, the relative viability was 0.892. Cell Line HOP-62 has a relative viability of 0.995. HCC-44 gave a relative viability of 1.01. With A549 the relative viability was 0.968. Work on LU99A yielded a relative viability of 0.813. Cell Line BEN has a relative viability of 1.1. HARA showed a relative viability of 0.873. For HCC-78, the relative viability was 0.937. NCI-H322M was tested, and the relative viability was 0.826. LCLC-97TM1 gave a relative viability of 0.759. NCI-H2009 gave a relative viability of 0.921. A-427 showed a relative viability of 1.08. With NCI-H661 the relative viability was 0.963. NCI-H1734 was tested, and the relative viability was 0.971. Cell Line NCI-H460 has a relative viability of 1. NCI-H2347 showed a relative viability of 0.589. For SW 1573, the relative viability was 0.914.

Same assay, conditions: 8 µM
For NCI-H2085, the relative viability was 1.05. Calu-6 gave a relative viability of 1.01. With HCC-366 the relative viability was 1.01. NCI-H1666 was tested, and the relative viability was 0.961. In the case of NCI-H596, the relative viability was 0.957. With LK-2 the relative viability was 1.11. For NCI-H2087, the relative viability was 0.982. SK-MES-1 showed a relative viability of 0.935. Cell Line H3255 has a relative viability of 1.03. In the case of COR-L23, the relative viability was 0.95. In the case of COR-L 105, the relative viability was 1.01. Work on IA-LM yielded a relative viability of 1.13. For LOU-NH91, the relative viability was 1.01. For NCI-H2170, the relative viability was 0.976. NCI-H2405 was tested, and the relative viability was 0.82. HOP-62 was tested, and the relative viability was 1.08. In the case of HCC-44, the relative viability was 1.02. Cell Line A549 has a relative viability of 1.04. LU99A gave a relative viability of 0.944. In the case of BEN, the relative viability was 1.05. In the case of HARA, the relative viability was 0.847. HCC-78 gave a relative viability of 0.978. For NCI-H322M, the relative viability was 1.02. LCLC-97TM1 was tested, and the relative viability was 1.06. With NCI-H2009 the relative viability was 0.952. Work on A-427 yielded a relative viability of 0.99. NCI-H661 was tested, and the relative viability was 1. With NCI-H1734 the relative viability was 0.958. With NCI-H460 the relative viability was 0.976. With NCI-H2347 the relative viability was 0.833. With SW 1573 the relative viability was 0.958.
